Assay results: patent US20220281930A1, “COMPOSITIONS AND METHODS FOR THE TREATMENT OF PATHOLOGICAL PAIN AND ITCH” (DUKE UNIVERSITY, priority 2019, published 2022)

How the values were obtained:
[1] = tested on: intracellular chloride ([Cl—]i); assay: Secondary screen: Clomeleon chloride imaging in primary mouse neurons; assay type: cell-based; parameters: chloride reduction (%): concentration or dose not given beside the values
Experimental: The primary screen encompassed three levels of LUC measurements. The first level of screening yielded a total of 137 compounds with cut-off RLU>125% LUC activity. These 137 compounds were subject to second round of screening, which was carried out in duplicate independent assays to yield the top 103 compounds sorted for highest RLU. The 103 compounds were then subjected to a third round of screening carried out in duplicate independent assays to yield the top 40 compounds which were again ranked. The best 22 of these 40 compounds (ranked for highest RLU activity) were subjected to secondary screening: Cultured neurons were treated with the 22 compounds; RT-qPCR and Clomeleon imaging methodologies (Yeo et al., 2009, J Neurosci 29:14652-14662) were used to determine effects of compounds on KCC2 mRNA expression and [Cl—]i, respectively. Each compound was ranked based on composite scores from primary and secondary screening.
Chloride imaging of primary cultured cortical neurons was conducted as previously described (Kuner and Augustine, 2000, Neuron 27:447-459; Liedtke et al., 2013, Small 9:1066-1075; Yeo et al., 2009, J Neurosci 29:14652-14662). A Clomeleon expression plasmid was transfected into primary cortical neurons by electroporation (Amaxa Nucleofector Device). Transfected neurons were verified by yellow fluorescent protein (YFP) fluorescence, and ratiometric images (excitation at λ=434 nm, dual emission at λ=485 and 535 nm; for resting chloride, six stable frames at […] were captured, which were averaged) were acquired using RATIOTOOL program. Calibration of Clomeleon signals (535 nm/485 nm emission ratio) was performed by using tributyltin-nigericin to establish a standard curve, which was then normalized for measured intraneuronal pH to take into account the pH sensitivity of Clomeleon.
To identify KCC2 gene expression enhancing compounds, cultured primary cortical neurons were cultured from KCC2-luciferase(LUC)-knockin (KCC2-LUCki) mice (Liedtke et al., 2013, Small 9:1066-1075; Yeo et al., 2013, Proc Natl Acad Sci USA 110:4315-4320) and used LUC metrics as readout for activity of the proximal KCC2 promoter (2.5 kB (Yeo et al., 2009, J Neurosci 29:14652-14662)), which drives LUC in this mouse transgenic line. A Z′ factor of 0.94 was obtained. This strategy will not select for long-range enhancers of KCC2 gene expression that act outside the 2.5 kB core KCC2 promoter. 1057 compounds, contained in two NCI libraries (FIG. 1), related to inhibition of growth of malignantly transformed cells were screened. Iterative screening followed by measurements of KCC2 mRNA (RT-qPCR) and intracellular chloride ([Cl—]i), using clomeleon chloride indicator protein (Kuner and Augustine, 2000, Neuron 27:447-459; Yeo et al., 2009, J Neurosci 29:14652-14662), led to decreasing numbers of confirmed and re-confirmed hits, and 4 “winner” compounds were selected (FIG. 1 and Table 3).

KCC2 protein = assay: KCC2 immuno-staining morphometry of spinal cord dorsal horn; assay type: in vivo, mouse; details: KP 10 mg/kg; nerve constriction injury and CFA inflammatory pain models
Experimental: All mice were deeply anaesthetized with isoflurane and then transcardially perfused with ice-cold 4% paraformaldehyde in 0.1 M phosphate buffer, pH 7.4 (4% PFA). Dissected spinal cord samples were then post-fixed overnight in 4% PFA at 4° C., cryoprotected in a 20% sucrose solution in PBS at 4° C., frozen in Tissue-Tek OCT (Sakura), and stored at −80° C. until sectioning. Samples were sectioned at 20 μm using a cryostat (Microm HM 505N). The sections were blocked with 2% bovine serum albumin (BSA) in PBS with 0.3% Triton X-100 (Blocking solution) at room temperature for 1 h. The sections were treated with primary antibody in blocking solution at 4° C. overnight. The sections were washed three times followed by secondary antibody treatment at 4° C. for 2 hours. Anti-KCC2 antibody was validated as described above for immuno-cytochemistry. The goat anti-rabbit IgG Alexa Fluor 488 was obtained from Invitrogen (A-11008). […]
With the aforementioned findings and in view of the SCDH as the likely site of analgesic action of KP (Coull et al., 2003, Nature 424:938-942; Gagnon et al., 2013, Nat Med 19:1524-1528), SCDH KCC2 expression and function in nerve injury and response to KP was assessed. […] SCDH KCC2 protein expression was measured morphometrically after KCC2 immunolabeling using SCDH laminae I-II as the region-of-interest (FIG. 5B).

EGABA = assay: Perforated patch EGABA in SCDH lamina-II neurons of treated mice; assay type: in vivo, mouse; details: slices of PSNL juvenile mice treated with KP 30 mg/kg
KCC2 mRNA = KCC2 mRNA RT-qPCR in microdissected spinal cord dorsal horn; assay type: in vivo, mouse; details: KP 10 mg/kg; after PSNL vs vehicle
Experimental: oligodT-initiated reverse transcription of 1 μg total RNA, DNA-se treated, was subjected to RT-qPCR using primers specific for KCC2 for rat and KCC2 for human sequences, normalized for neuronal βIII-tubulin, as previously described (Yeo et al., 2009, J Neurosci 29:14652-14662). For cultured neurons, total RNA was extracted from pelleted cells, and for spinal cord tissue it was extracted from microdissected lumbar spinal cord dorsal horn.
With the aforementioned findings and in view of the SCDH as the likely site of analgesic action of KP (Coull et al., 2003, Nature 424:938-942; Gagnon et al., 2013, Nat Med 19:1524-1528), SCDH KCC2 expression and function in nerve injury and response to KP was assessed. […] To measure KCC2 mRNA, SCDH Rexed-layers I-II were microdissected with laser capture followed by RT-qPCR. SCDH KCC2 protein expression was measured morphometrically after KCC2 immunolabeling using SCDH laminae I-II as the region-of-interest (FIG. 5B).

Question: How did the “Clomeleon Score (duplicates)” value ([1]; Natural Compounds, rank score) turn out when `O=C1Cc2c([nH]c3ccc(Br)cc23)-c2ccccc2N1` [kenpaullone, 9-bromo-7,12-dihydro-indolo [3,2-d] [1]benzazepin-6(5H)-one] was run?
Answer: 2

Question: And the “chloride reduction (%)” value ([1]; from the [Cl—]i pair of the same line)?
Answer: 33.8%

Question: And the “chloride [Cl—]i mM” value ([1]; value after compound, control => treated)?
Answer: 68 => 23 mM

Question: And the “KCC2 protein expression in SCDH” value (KCC2 protein)?
Answer: increases KCC2 protein expression

Question: What about the EGABA (EGABA) of the same compound?
Answer: significant hyperpolarization

Question: And the “KCC2 mRNA expression in SCDH lamina-I/II” value (KCC2 mRNA)?
Answer: rescues significantly attenuated KCC2 mRNA expression
